The values below are quoted from earlier work in patent US20190231802A1, “CHEMOTHERAPEUTIC-RELEASING IMPLANTABLE STICK, METHODS OF MANUFACTURE AND PRECURSOR MATERIALS” (The Johns Hopkins University, priority 2016, published 2019).

The test system of this series is selected cancer cell lines. Particulars: compared to paclitaxel, topotecan, CPT-11, docetaxel, carboplatin and temozolomide; previous study [8].

On to `COc1cccc2c1C(=O)c1c(O)c3c(c(O)c1C2=O)C[C@@](O)(C(=O)CO)C[C@@H]3O[C@H]1C[C@H](N)[C@H](O)[C@H](C)O1` [Doxorubicin], for which the IC50 entry is “relatively low IC50”.
